Measured values reported in patent publication US20230233569A1 (Revolution Medicines, Inc., priority 2020, published 2023).

Key:
[1] = test system: AsPC-1 (K-Ras G12D); assay: CellTiter-Glo cell viability assay; format: cell-based; conditions: Homo sapiens, ASPC1, 120 h, read-out: AsPC-1 Cell Viability assay data IC50, K-Ras G12D, 5-day treatment
Description: Determination of Cell Viability in RAS Mutant Cancer Cell Lines
Protocol: CellTiter-Glo® Cell Viability Assay
Note—The following protocol describes a procedure for monitoring cell viability of K-Ras mutant cancer cell lines in response to a compound of the invention. Other RAS isoforms may be employed, though the number of cells to be seeded will vary based on cell line used.
Test compounds (132.5 nL) were directly dispensed into the assay plates containing cells. […] On day 5, assay plates and their contents were equilibrated to room temperature for approximately 30 minutes. […] Luminescence was measured using the PerkinElmer Enspire. Data were normalized by the following: (Sample signal/Avg. DMSO)*100. The data were fit using a four-parameter logistic fit.

[2] = test system: K-Ras G12C (NCI-H358 cells); assay: Potency assay: pERK (AlphaLISA SureFire or In-Cell Western); format: cell-based; conditions: Homo sapiens, NCI-H358; H358 KRAS G12C; read-out: pERK EC50
Method in brief: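 NCI-H358 cells plated overnight, then treated 4 h at 37 °C with 10-point 3-fold DMSO dilutions (10 mM top stock), in duplicate. pERK1/2 read by AlphaLISA SureFire Ultra lysate assay or by In-Cell Western with DRAQ5 DNA stain. IC50 from 4-parameter sigmoidal fit of signal vs log concentration.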

[3] = target: KRAS G12C (Homo sapiens, UniProt P01116+P62937, G12C); assay: Disruption of BRAF RBD interaction with Ras (FRET / MOA assay, with Cyclophilin A); format: biochemical; conditions: KRAS G12C; read-out: KRAS G12C FRET data IC50
KRAS G12C, sequence (P01116 1-169 isoform P01116-2 G12C): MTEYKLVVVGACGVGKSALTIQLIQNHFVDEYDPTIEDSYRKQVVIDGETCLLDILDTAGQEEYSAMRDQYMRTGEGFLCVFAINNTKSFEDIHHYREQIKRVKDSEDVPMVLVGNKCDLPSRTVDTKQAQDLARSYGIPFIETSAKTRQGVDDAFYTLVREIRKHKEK
KRAS G12C, sequence (P62937 whole entry): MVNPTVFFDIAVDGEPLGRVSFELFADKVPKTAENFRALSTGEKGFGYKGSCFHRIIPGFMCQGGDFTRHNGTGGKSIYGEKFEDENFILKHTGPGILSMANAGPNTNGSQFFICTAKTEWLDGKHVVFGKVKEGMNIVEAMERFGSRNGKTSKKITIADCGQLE
Method in brief: (§1)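 First, compounds at a ten-point threefold dilution series (highest final concentration 30 μM) were incubated with nucleotide-loaded K-Ras, Cyclophilin A and BRAF RBD for 3 h at 25 °C. Next, detection antibodies were added for 1.5 h. Finally, IC50 was calculated from TR-FRET ratio decreases against DMSO controls.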

[4] = target: KRAS G12D (Homo sapiens, UniProt P01116+P62937, G12D); assay: as above; format: biochemical; conditions: read-out: KRAS G12D FRET data, IC50
KRAS G12D, sequence (P01116 1-169 isoform P01116-2 G12D limits assumed): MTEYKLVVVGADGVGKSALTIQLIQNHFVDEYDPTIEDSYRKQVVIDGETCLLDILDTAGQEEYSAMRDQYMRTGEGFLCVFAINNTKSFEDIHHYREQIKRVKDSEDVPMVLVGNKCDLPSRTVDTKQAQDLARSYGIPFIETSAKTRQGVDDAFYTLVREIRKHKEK
KRAS G12D, sequence (P62937 whole entry): as the sequence (P62937 whole entry) above
Method in brief: as §1

[5] = target: NRAS G12C (Homo sapiens, UniProt P01111+P62937, G12C); assay: as above; format: biochemical; conditions: NRAS G12C; read-out: NRAS G12C FRET data IC50
NRAS G12C, sequence (P01111 whole entry G12C): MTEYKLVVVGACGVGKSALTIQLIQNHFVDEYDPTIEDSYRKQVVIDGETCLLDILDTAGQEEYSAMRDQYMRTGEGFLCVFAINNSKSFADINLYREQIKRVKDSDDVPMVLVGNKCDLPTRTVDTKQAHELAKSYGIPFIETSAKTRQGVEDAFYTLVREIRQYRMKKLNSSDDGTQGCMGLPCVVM
NRAS G12C, sequence (P62937 whole entry): as the sequence (P62937 whole entry) above

[6] = test system: NCI-H358 (K-Ras G12C); assay: CellTiter-Glo cell viability assay, 5-day treatment; format: cell-based; conditions: Homo sapiens, NCI-H358, H358, K-Ras G12C; read-out: Additional H358 Cell Viability assay data (K-Ras G12C, IC50)
Method in brief: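 Luminescence read-out after 5 days of compound exposure, with plates first brought to room temperature for roughly 30 minutes. Values are percent of averaged DMSO wells, fitted by four-parameter logistic regression.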

[7] = target: NRAS Q61R (Homo sapiens, UniProt P01111+P62937, Q61R); assay: Disruption of BRAF RBD interaction with Ras (FRET / MOA assay, with Cyclophilin A); format: biochemical; conditions: NRAS Q61R; read-out: NRAS Q61R FRET data IC50
NRAS Q61R, sequence (P01111 whole entry Q61R): as the sequence (P01111 whole entry G12C) above, with C12G, Q61R counted along it
NRAS Q61R, sequence (P62937 whole entry): as the sequence (P62937 whole entry) above
Method in brief: (§2)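 TR-FRET in 25 mM HEPES pH 7.3, 100 mM NaCl, 5 mM MgCl2, 0.1% BSA: 25 μM Cyclophilin A, 12.5 nM His6-Ras-GMPPNP, 50 nM GST-BRAF RBD with compound (10-point 3-fold series from 30 μM), 3 h at 25° C. Anti-His Eu/anti-GST APC added, 1.5 h more; IC50 from decreased FRET ratio versus DMSO.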

[8] = target: NRAS Q61K (Homo sapiens, UniProt P01111+P62937, Q61K); assay: as above; format: biochemical; conditions: NRAS Q61K; read-out: NRAS Q61K FRET data IC50
NRAS Q61K, sequence (P01111 whole entry Q61K): as the sequence (P01111 whole entry G12C) above, with C12G, Q61K counted along it
NRAS Q61K, sequence (P62937 whole entry): as the sequence (P62937 whole entry) above
Method in brief: as §2

[9] = target: KRAS G13C (Homo sapiens, UniProt P01116+P62937, G13C); assay: as above; format: biochemical; conditions: KRAS G13C; read-out: KRAS G13C FRET data IC50
KRAS G13C, sequence (P01116 1-169 isoform P01116-2 G13C): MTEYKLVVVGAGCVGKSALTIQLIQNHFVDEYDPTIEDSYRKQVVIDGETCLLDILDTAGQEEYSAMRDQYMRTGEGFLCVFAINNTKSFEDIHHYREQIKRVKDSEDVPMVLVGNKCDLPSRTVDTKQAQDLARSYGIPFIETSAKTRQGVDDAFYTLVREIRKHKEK
KRAS G13C, sequence (P62937 whole entry): as the sequence (P62937 whole entry) above
Method in brief: as §1

| Compound | EC50 [2] | IC50 [3] | IC50 [5] | IC50 [6] | IC50 [7] | IC50 [8] | IC50 [1] | IC50 [4] | IC50 [9] |
| --- | --- | --- | --- | --- | --- | --- | --- | --- | --- |
| CCn1c(-c2cnccc2COC)c2c3cc(ccc31)-c1cc(O)cc(c1)C[C@H](NC(=O)[C@H](C(C)C)N(C)C(=O)CN(C)C(=O)[C@H]1N[C@H]1c1ccccc1)C(=O)N1CCC[C@H](N1)C(=O)OCC(C)(C)C2 [Example 116] |  |  |  |  |  |  | > 10000 nM |  |  |
| CCn1c(-c2cccnc2[C@H](C)OC)c2c3cc(ccc31)N1CCC[C@@H](C[C@H](NC(=O)[C@H](C(C)C)N(C)C(=O)C3(F)CCN(C(=O)C#CC(C)(C)N(C)C)CC3)C(=O)N3CCCC(N3)C(=O)OCC(C)(C)C2)C1 [Example A616] | < 5000 nM | 10 to 100 nM | < 10 nM | < 10 nM | > 10000 nM | > 10000 nM |  | > 10000 nM |  |
| CCn1c(-c2cccnc2[C@H](C)OC)c2c3cc(ccc31)-c1cccc(n1)C[C@H](NC(=O)[C@H](C(C)C)N(C)C(=O)N1CCC13CN(C(=O)C#CC(C)(C)N(C)C)C3)C(=O)N1CCCC(N1)C(=O)OCC(C)(C)C2 (some centres unmarked) [Example A623] | < 5000 nM |  | 100 to 1000 nM | 10 to 100 nM | 1000 to 10000 nM | 100 to 1000 nM |  |  |  |
| CCn1c(-c2cccnc2[C@H](C)OC)c2c3cc(ccc31)-c1csc(n1)C[C@H](NC(=O)[C@H](C(C)C)N(C)C(=O)N1C[C@@H]3CN(C(=O)C#CC(C)(C)N(C)C)CC[C@@H]31)C(=O)N1CCCC(N1)C(=O)OCC(C)(C)C2 (some centres unmarked) [Example A625] | < 5000 nM |  | 100 to 1000 nM | 10 to 100 nM | 100 to 1000 nM | 100 to 1000 nM |  |  |  |
| CCn1c(-c2cccnc2[C@H](C)OC)c2c3cc(ccc31)-c1csc(n1)C[C@H](NC(=O)[C@@H](F)COC1CN(C(=O)C#CC(C)(C)N(C)C)C1)C(=O)N1CCCC(N1)C(=O)OCC(C)(C)C2 (some centres unmarked) [Example A626] | < 5000 nM |  | < 10 nM | 10 to 100 nM | 1000 to 10000 nM | 1000 to 10000 nM |  |  |  |
| CCn1c(-c2cccnc2[C@H](C)OC)c2c3cc(ccc31)-c1csc(n1)C[C@H](NC(=O)[C@H](F)COC1CN(C(=O)C#CC(C)(C)N(C)C)C1)C(=O)N1CCCC(N1)C(=O)OCC(C)(C)C2 (some centres unmarked) [Example A627] | < 5000 nM |  | < 10 nM | < 10 nM | > 10000 nM | > 10000 nM |  |  |  |
| C=CC(=O)N(C)CC1CCN(C(=O)N(C)[C@H](C(=O)N[C@H]2Cc3nc(cs3)-c3ccc4c(c3)c(c(-c3cccnc3[C@H](C)OC)n4CC)CC(C)(C)COC(=O)C3CCCN(N3)C2=O)C(C)C)CC1 (some centres unmarked) [Example A629] | < 5000 nM |  | 10 to 100 nM | < 10 nM | 10 to 100 nM | 10 to 100 nM |  | 100 to 1000 nM | 10 to 100 nM |
| C=CC(=O)N(C)[C@H]1CN(C(=O)N(C)[C@H](C(=O)N[C@H]2Cc3nc(cs3)-c3ccc4c(c3)c(c(-c3cccnc3[C@H](C)OC)n4CC)CC(C)(C)COC(=O)C3CCCN(N3)C2=O)C(C)C)C[C@H]1F (some centres unmarked) [Example A631] | < 5000 nM |  | 10 to 100 nM | < 10 nM | 100 to 1000 nM | 10 to 100 nM |  |  |  |
| C=CC(=O)N1CC2(CCN2C(=O)N(C)[C@H](C(=O)N[C@H]2Cc3cccc(n3)-c3ccc4c(c3)c(c(-c3cccnc3[C@H](C)OC)n4CC)CC(C)(C)COC(=O)C3CCCN(N3)C2=O)C(C)C)C1 (some centres unmarked) [Example A636] | < 5000 nM |  | 10 to 100 nM | < 10 nM | 100 to 1000 nM | 100 to 1000 nM |  |  |  |
| C=CC(=O)N1CC[C@H](C(=O)N(C)[C@H](C(=O)N[C@H]2Cc3cccc(c3)-c3ccc4c(c3)c(c(-c3cccnc3[C@H](C)OC)n4CC)CC(C)(C)COC(=O)C3CCCN(N3)C2=O)[C@@H](C)C(F)(F)F)C1 (some centres unmarked) [Example A640] | < 5000 nM |  | 100 to 1000 nM | 10 to 100 nM | 1000 to 10000 nM | 1000 to 10000 nM |  |  |  |

More lines, main results first:

| EC50 [2] | IC50 [3] | IC50 [5] | IC50 [6] | IC50 [7] | IC50 [8] | Compound | IC50 [1] | IC50 [4] | IC50 [9] |
| --- | --- | --- | --- | --- | --- | --- | --- | --- | --- |
| < 5000 nM |  | < 10 nM | 10 to 100 nM | > 10000 nM | > 10000 nM | CO[C@@H](C)c1ncccc1-c1c2c3cc(ccc3n1CC(F)(F)F)N1CCO[C@@H](C[C@H](NC(=O)[C@H](C(C)C)N3CC[C@@]4(CCN(C(=O)C#CC(C)(C)N(C)C)C4)C3=O)C(=O)N3CCCC(N3)C(=O)OCC(C)(C)C2)C1 [Example A628] |  |  |  |
| < 5000 nM |  | 10 to 100 nM | 100 to 1000 nM | 100 to 1000 nM | 100 to 1000 nM | C=CC(=O)N(C)[C@H]1CN(C(=O)N(C)[C@H](C(=O)N[C@H]2Cc3nc(cs3)-c3ccc4c(c3)c(c(-c3cccnc3[C@H](C)OC)n4CC)CC(C)(C)COC(=O)C3CCCN(N3)C2=O)C(C)C)C[C@@H]1F (some centres unmarked) [Example A632] |  |  |  |
| < 5000 nM |  | 100 to 1000 nM | 100 to 1000 nM | 100 to 1000 nM | 100 to 1000 nM | C=CC(=O)N1CCCC2(CCN(C(=O)N(C)[C@H](C(=O)N[C@H]3Cc4nc(cs4)-c4ccc5c(c4)c(c(-c4cccnc4[C@H](C)OC)n5CC)CC(C)(C)COC(=O)C4CCCN(N4)C3=O)C(C)C)CC2)C1 (some centres unmarked) [Example A635] |  |  |  |
| < 5000 nM |  | 100 to 1000 nM | 100 to 1000 nM | 1000 to 10000 nM | 1000 to 10000 nM | C=CC(=O)N1CC[C@H](C(=O)N(C)[C@@H](CC(F)(F)F)C(=O)N[C@H]2Cc3cccc(c3)-c3ccc4c(c3)c(c(-c3cccnc3[C@H](C)OC)n4CC)CC(C)(C)COC(=O)C3CCCN(N3)C2=O)C1 (some centres unmarked) [Example A639] |  |  |  |
| < 5000 nM |  | 100 to 1000 nM | 10 to 100 nM | 1000 to 10000 nM | 1000 to 10000 nM | C=CC(=O)N1CC[C@H](C(=O)N(C)[C@H](C(=O)N[C@H]2Cc3cccc(c3)-c3ccc4c(c3)c(c(-c3cccnc3[C@H](C)OC)n4CC)CC(C)(C)COC(=O)C3CCCN(N3)C2=O)[C@H](C)C(F)(F)F)C1 (some centres unmarked) [Example A641] |  |  |  |
| < 5000 nM |  | 10 to 100 nM | < 10 nM | 100 to 1000 nM | 10 to 100 nM | C=CC(=O)N1CC2[C@@H](C1)CN2C(=O)N(C)[C@H](C(=O)N[C@H]1Cc2nc(cs2)-c2ccc3c(c2)c(c(-c2cccnc2[C@H](C)OC)n3CC)CC(C)(C)COC(=O)[C@@H]2CCCN(N2)C1=O)C(C)C (some centres unmarked) [Example A686] |  |  |  |
